Experimental data as given in patent publication US8969573B2, “Compounds for the inhibition of cellular proliferation” (President and Fellows of Harvard College, priority 2010, dated 2015).
Read-outs that look alike come from different tables or passages of the source.

Tests used:
eIF4E = eIF4E (Homo sapiens, UniProt P06730); assay: NMR binding experiments (titration with protein)
Procedure: Experiments were carried out with representative compounds to provide an indication of the ability of the compounds of the present invention to bind to eIF4E and therefore act as inhibitors of the binding of eIF4E to eIF4G.

[1] = test system: CRL2351 human breast cancer; assay: SRB assay (inhibition of cell proliferation); assay type: cell-based; details: CRL2351 human breast cancer cells
Excerpt: (§1) A sulfur rhodamine B (SRB) assay was used to determine the extent of inhibition of cell proliferation as a measure of the anti-cancer activity of compounds of the present disclosure. The reagent SRB binds to cellular proteins and absorbs light proportionally to the cellular protein content, which is a surrogate marker for the number of cells. According to aspects of the present disclosure, the assay can be used to with any cancer cell line including breast cancer cell lines, prostate cancer cell lines, melanoma cell lines, lung cancer cell lines or any other cell lines of the cancers described herein.
(§2) The following protocol was used to determine the growth characteristics of certain cell lines CRL2351 human breast cancer and CRL2813 human melanoma from which cell lines having doubling times less than 48 hours were selected for growth inhibition experiments. […] The following materials were used in addition to the cancel cell lines: complete (5% fetal calf serum added) tissue culture media, 96-well tissue culture plates, Sulforhodamine B dye (SRB, 0.57% w/w), […] (TCA, 10%), acetic acid glacial (1%) and 10 mM Tris base. The cells were prepared and plated. Cancer cells were grown to 80% confluency in an incubator. The cells were trypsinized per standard protocol or as needed for each cell line. The trypsin was neutralized, cells dissociated and counted. Each cell line was plated at a density of 500, 1000 and 3000 cells per well (six wells each) in five separate plates. The cells were then returned to the incubator. One plate was then removed each day starting day one after plating. 100 μl of 10% TCA was then added and the cells were fixed at 4° C. until all the cells were fixed. […] The cell growth for vehicle treatment is considered to be 100%. The optical density was then measured and plotted for each starting cell number and cell line against time. The percent cell growth inhibition was calculated as 100 minus the % of control cell growth. The % of control cell growth=((mean OD sample−Mean OD day 0)/(mean OD vehicle−Mean OD day 0))*100.

CRL2813 human melanoma = assay: SRB assay (inhibition of cell proliferation); assay type: cell-based
Excerpt: as §1, §2

eIF4E/eIF4G interaction = eIF4E/eIF4G interaction (Homo sapiens, UniProt P06730); assay: Fluorescent polarization assay; assay type: binding; details: FITC eIF4G peptide and recombinant eIF4E, ratio to Z (4EGI-1 = 1)
Chain of eIF4E/eIF4G interaction (P06730 whole entry): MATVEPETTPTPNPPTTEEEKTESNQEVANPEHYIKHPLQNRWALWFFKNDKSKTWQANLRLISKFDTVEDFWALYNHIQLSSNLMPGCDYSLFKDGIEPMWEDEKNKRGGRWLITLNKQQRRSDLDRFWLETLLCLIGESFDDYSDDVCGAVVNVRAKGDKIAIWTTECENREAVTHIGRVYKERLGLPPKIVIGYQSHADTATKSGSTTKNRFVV
Procedure: The difference between the two measurement yields net polarization which is considered full signal of the assay (100% control). […] The activity of compound at each concentration is determined by comparing the fluorescent polarization (FP) signal in the presence of compound to the control (no compound) value. The percent inhibition is =100-((FP compound/FP control)*100).

[2] = Homo sapiens, summary table, read-out: IC50 [μM} CRL2351
[3] = Homo sapiens, CRL2813, CRL2813 human melanoma cells, summary table, read-out: IC50 [μM} CRL2813
[4] = Homo sapiens, Tables 1, 4, 5, read-out: SRB-IC50 (μM) 2351
[5] = Homo sapiens, CRL2813, CRL2813 human melanoma cells, Tables 1, 4, 5, read-out: SRB-IC50 (μM) 2813
[6] = summary table, read-out: IC50 [μM} CRL2351
[7] = CRL2813 human melanoma cells, summary table, read-out: IC50 [μM} CRL2813

Chain of eIF4E (P06730 27-217 limits assumed): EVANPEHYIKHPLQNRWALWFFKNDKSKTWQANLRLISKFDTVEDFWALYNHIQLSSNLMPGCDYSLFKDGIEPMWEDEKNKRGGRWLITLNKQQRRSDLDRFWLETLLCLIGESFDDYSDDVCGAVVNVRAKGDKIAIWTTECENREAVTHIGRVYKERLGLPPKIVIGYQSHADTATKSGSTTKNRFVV

Structure (SMILES)	IC50 (eIF4E) [µM]	IC50 [1, 2] [µM]	IC50 (CRL2813 human melanoma; [3]) [µM]	Fp (ratio to Z) (eIF4E/eIF4G interaction)	IC50 [1, 4] [µM]	IC50 (CRL2813 human melanoma; [5]) [µM]	IC50 [1, 6] [µM]	IC50 (CRL2813 human melanoma; [7]) [µM]
O=C(O)[C@H](Cc1ccccc1[N+](=O)[O-])Nc1nc(-c2ccc(Cl)c(Cl)c2)cs1 [KY-549]	~7							
O=C(O)C(Cc1ccc(O)cc1)=NNc1nc(-c2cccc([N+](=O)[O-])c2)cs1 [KY-A6]	~5							
COc1ccc(-c2nc(NN=C(Cc3ccccc3[N+](=O)[O-])C(=O)O)sc2-c2ccc(-n3cc(CO)nn3)cc2)cc1 [KY-383, 2-{[5-[4-(4-hydroxymethyl-[1,2,3]triazol-1-yl)-phenyl]-4-(4-methoxy-phenyl)-thiazol-2-yl]-hydrazono}-3-(2-nitro-phenyl)-propionic acid]	~3	> 20	13 ± 3.6	2.3				
COc1ccc(-c2sc(N/N=C(/Cc3ccccc3[N+](=O)[O-])C(=O)O)nc2-c2ccc(Cl)c(Cl)c2)cc1 [KY-600]		4.5	2.8	0.7				
[N-]=[N+]=NCCCCOc1ccc(-c2csc(NN=C(Cc3ccccc3[N+](=O)[O-])C(=O)O)n2)cc1 [KH-113s]		12	12.6	1.05	11	12.5		
N.O=C(O)/C(Cn1cc(-c2ccccn2)nn1)=N/Nc1nc(-c2ccc(Cl)c(Cl)c2)cs1 [KY-767, ammonium (E)-2-(2-(4-(3,4-dichlorophenyl)thiazol-2-yl)hydrazono)-3-(4-(pyridin-2-yl)-1H-1,2,3-triazol-1-yl)propanoate]		9	3.5	0.75				
COc1ccc(-c2nc(NN=C(Cc3ccccc3[N+](=O)[O-])C(=O)O)sc2-c2ccc(Cl)c(Cl)c2)cc1 [KY-371A11-B1]		16 ± 4.9	3 ± 0.5	2.4				
O=C(O)/C(Cc1ccc(C(F)(F)F)cc1)=N/Nc1nc(-c2ccc(Cl)c(Cl)c2)cs1 [KY-680]		3	1	1.1				
CCOc1ccc(-c2nc(N/N=C(/Cc3ccccc3[N+](=O)[O-])C(=O)O)sc2-c2ccc(OC)cc2)cc1 [KY-576S]				0.82			> 20	12.8
[N-]=[N+]=NCCCCCOc1ccc(-c2csc(N/N=C(/Cc3ccccc3[N+](=O)[O-])C(=O)O)n2)cc1 [KH-168S]		> 20	16	1.29		16		
COc1ccc(-c2nc(N/N=C(\Cc3ccccc3[N+](=O)[O-])C(=O)O)sc2-c2cccc(-n3cc(CO)nn3)c2)cc1 [KY-467F]		> 20	> 20	0.7				
O=C(O)/C(=N/Nc1nc(-c2ccc(Cl)c(Cl)c2)cs1)c1cccc([N+](=O)[O-])c1 [KY-788-E, (E)-2-(2-(4-(3,4-dichlorophenyl)thiazol-2-yl)hydrazono)-2-(3-nitrophenyl)acetic acid]			7	1.4			18	
[N-]=[N+]=NCCCOc1ccc(-c2csc(N/N=C(/Cc3ccccc3[N+](=O)[O-])C(=O)O)n2)cc1 [KH-167f]			18.6	1.04		18.6	> 20	
[N-]=[N+]=NCCCOc1ccccc1-c1csc(N/N=C(/Cc2ccccc2[N+](=O)[O-])C(=O)O)n1 [KH-170]		0.8	14.5	0.92	0.8	16.5		
COc1ccc(-c2cn(-c3ccc(-c4sc(NN=C(Cc5ccccc5[N+](=O)[O-])C(=O)O)nc4-c4ccc(OC)cc4)cc3)nn2)cc1 [KY-445]		> 20	13 ± 0.82	1				
Cc1ccc(-c2nc(NN=C(Cc3ccccc3[N+](=O)[O-])C(=O)O)sc2-c2ccc(Cl)c(Cl)c2)cc1 [KY-365A22-B3]		3.2	3.3	0.85				
COc1ccc(-c2nc(NN=C(Cc3ccccc3[N+](=O)[O-])C(=O)O)sc2-c2ccc(Cl)cc2)cc1OC [KY-353PR]		> 20	> 20	0.7				
COCc1cn(-c2ccc(-c3sc(NN=C(Cc4ccccc4[N+](=O)[O-])C(=O)O)nc3-c3ccc(OC)cc3)cc2)nn1 [KY-443A16-19]		> 20	14 ± 0.73	1				
[N-]=[N+]=NCCOc1cccc(-c2csc(N/N=C(/Cc3ccccc3[N+](=O)[O-])C(=O)O)n2)c1 [KH-174]		1.2	11	0.82	1.3	11		
COc1ccc(-c2sc(N/N=C(/Cc3ccccc3[N+](=O)[O-])C(=O)O)nc2-c2ccc(-c3ccccc3)cc2)cc1 [KY-577SF, 2-{[4-Biphenyl-4-yl-5-(4-methoxy-phenyl)-thiazol-2-yl]-hydrazono}-3-(2-nitro-phenyl)-propionic acid]				1			0.7	0.1
COc1ccc(-c2nc(N/N=C(\Cc3ccccc3[N+](=O)[O-])C(=O)O)sc2-c2ccc(I)cc2)cc1 [KY-613S]		9.5	2.7	1.1				
O=C(O)/C(Cc1c[nH]c2ccccc12)=N\Nc1nc(-c2ccc(Cl)c(Cl)c2)cs1 [KY-753, (Z/E)-2-(2-(4-(3,4-dichlorophenyl)thiazol-2-yl)hydrazono)-3-(1H-indol-3-yl)propanoic acid]		13.5	7.5	0.85				
NC(=O)/C(Cc1ccccc1[N+](=O)[O-])=N/Nc1nc(-c2ccc(Cl)c(Cl)c2)cs1 [KY-725]		3	3	0.7				
O=C(O)C(Cc1ccccc1[N+](=O)[O-])=NNc1nc(-c2ccccc2)c(-c2ccc(Cl)cc2)s1 [KY-349PR]		> 20	> 20	1				
COc1ccc(-c2nc(NN=C(Cc3ccccc3[N+](=O)[O-])C(=O)O)sc2-c2ccc(Cl)cc2)cc1 [KY-355PR]		> 20	3 ± 0.18	1.1				
O=C(O)c1nn(-c2nc(-c3ccccc3)cs2)c2ccc([N+](=O)[O-])cc12 [RYF-292]		9	2.5	0.6				
O=C(O)C(Cc1ccccc1[N+](=O)[O-])NNc1nc(-c2ccc(Cl)c(Cl)c2)cs1 (stereo not drawn) [KY-720]	~4							
CCOc1ccc(-c2nc(N/N=C(/Cc3ccccc3[N+](=O)[O-])C(=O)O)sc2-c2ccc(OC)cc2)cc1 [KY-576F]				1			2	2
